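These data come from cells grown in 96-well plates and exposed to compound for 48 hours at five concentrations. GI50: concentration for 50% inhibition of growth.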 Calls of active or inactive are those of the source. Rule as the data show it: active = GI50 up to about 1.1 µM and inactive = higher.
Columns and labels:
Assay in all cases: DTP human tumour cell line panel, 48 h
ACHN = tested on: ACHN
EKVX = tested on: EKVX
HCT-116 = tested on: HCT-116
HCT-15 = tested on: HCT-15
HL-60 = tested on: HL-60
HOP-18 = tested on: HOP-18
HOP-92 = tested on: HOP-92
IGROV-1 = tested on: IGROV-1
K562 = tested on: K562
LOX IMVI = tested on: LOX IMVI
MCF7 = tested on: MCF7
MDA-MB-231 = tested on: MDA-MB-231
MDA-MB-435 = tested on: MDA-MB-435
MOLT-4 = tested on: MOLT-4
OVCAR-3 = tested on: OVCAR-3
SK-MEL-28 = tested on: SK-MEL-28
SK-MEL-2 = tested on: SK-MEL-2
SNB-75 = tested on: SNB-75
TK-10 = tested on: TK-10
U-251 = tested on: U-251

| SMILES | GI50 (ACHN) | GI50 (EKVX) | GI50 (HCT-116) | GI50 (HCT-15) [µM] | GI50 (HL-60) | GI50 (HOP-18) | GI50 (HOP-92) | GI50 (IGROV-1) | GI50 (K562) | GI50 (LOX IMVI) | GI50 (MCF7) | GI50 (MDA-MB-231) | GI50 (MDA-MB-435) | GI50 (MOLT-4) | GI50 (OVCAR-3) | GI50 (SK-MEL-28) | GI50 (SK-MEL-2) | GI50 (SNB-75) | GI50 (TK-10) | GI50 (U-251) |
| --- | --- | --- | --- | --- | --- | --- | --- | --- | --- | --- | --- | --- | --- | --- | --- | --- | --- | --- | --- | --- |
| Nc1ccn(C2OC(COC(=O)C34CC5CC(CC(C5)C3)C4)C(O)C2O)c(=O)n1 (stereo not drawn) | 1.77 µM (inactive) | > 100 µM (inactive) | 2.75 µM (inactive) | > 70.6 | 0.622 µM (active) | > 100 µM (inactive) | > 100 µM (inactive) | > 100 µM (inactive) | 43.4 µM (inactive) | 7.01 µM (inactive) | 4.81 µM (inactive) | > 100 µM (inactive) | > 100 µM (inactive) | 0.0679 µM (active) | > 100 µM (inactive) | 52.4 µM (inactive) | > 100 µM (inactive) | > 100 µM (inactive) | > 100 µM (inactive) | > 100 µM (inactive) |
| COc1ccc2nc3cccc(C(=O)NCCN(C)C)c3nc2c1 | 0.689 µM (active) | 3.06 µM (inactive) | 0.512 µM (active) | 1.43 | 1.08 µM (active) | 3.19 µM (inactive) | 5.13 µM (inactive) | 2.67 µM (inactive) | 0.794 µM (active) | 0.64 µM (active) |  |  |  | 0.187 µM (active) | 2.08 µM (inactive) | 2.25 µM (inactive) | 1.59 µM (inactive) | 2.15 µM (inactive) | 2 µM (inactive) | 2.57 µM (inactive) |
| O=C1C(=O)N(c2ccc(Cl)cc2Cl)C(=O)C(=O)C1c1nc2ccccc2s1 | > 100 µM (inactive) | > 79.8 µM (inactive) | > 71.6 µM (inactive) | > 89.1 | 23.7 µM (inactive) | > 100 µM (inactive) | 80.4 µM (inactive) | > 100 µM (inactive) | 31 µM (inactive) | > 100 µM (inactive) |  |  |  | 23.3 µM (inactive) | > 100 µM (inactive) | > 87.9 µM (inactive) | > 100 µM (inactive) | 20.9 µM (inactive) | > 100 µM (inactive) | > 43.9 µM (inactive) |
| N#Cc1c(C(N)=O)ncn1Cc1ccccc1 | > 100 µM (inactive) | > 100 µM (inactive) | > 100 µM (inactive) | > 100 | > 100 µM (inactive) | > 100 µM (inactive) | > 100 µM (inactive) | > 100 µM (inactive) | > 100 µM (inactive) | > 100 µM (inactive) |  |  |  | > 100 µM (inactive) | > 100 µM (inactive) |  | > 100 µM (inactive) | > 100 µM (inactive) | > 100 µM (inactive) | > 100 µM (inactive) |
| CCOC(=O)CCC(NC(=O)c1ccc(/N=C/c2nc3ccccc3nc2-c2ccccc2)cc1)C(=O)OCC (stereo not drawn) | > 100 µM (inactive) | > 100 µM (inactive) | > 100 µM (inactive) | > 100 | > 100 µM (inactive) | 35.4 µM (inactive) | > 100 µM (inactive) | > 100 µM (inactive) | > 100 µM (inactive) | > 100 µM (inactive) |  |  |  | > 100 µM (inactive) | > 100 µM (inactive) | > 100 µM (inactive) | > 100 µM (inactive) | 20 µM (inactive) | > 100 µM (inactive) | > 100 µM (inactive) |
| N#Cc1nn(-c2ccc(Cl)cc2)c(=N)c2c(N)n3nc(-c4ccccc4)cc3nc12 | 1 µM (active) | 1 µM (active) | 1 µM (active) | 1 | > 100 µM (inactive) | < 0.01 µM (active) | 0.546 µM (active) | 0.546 µM (active) | 1 µM (active) | 0.594 µM (active) |  |  |  | 0.294 µM (active) | 0.804 µM (active) | 1 µM (active) | 1 µM (active) | 1 µM (active) | > 100 µM (inactive) | 0.556 µM (active) |
| CC(C)N(C(=O)C12C3C4C5C3C1(C#N)C5C42)C(C)C (stereo not drawn) | > 100 µM (inactive) | > 100 µM (inactive) | > 100 µM (inactive) | > 100 | > 100 µM (inactive) | > 100 µM (inactive) | > 100 µM (inactive) | > 100 µM (inactive) | > 100 µM (inactive) | 35.3 µM (inactive) |  |  |  | > 100 µM (inactive) | > 100 µM (inactive) | > 100 µM (inactive) | > 100 µM (inactive) | > 100 µM (inactive) | > 100 µM (inactive) | > 100 µM (inactive) |
| COc1cc(/C=C2/C(=O)N(C(=O)OC(C)C)C(Cc3cc(OC)c(OC)c(C)c3OC)C(=O)N2Cc2ccccc2)c(OC)c(C)c1OC (stereo not drawn) | > 100 µM (inactive) | > 100 µM (inactive) | 27.5 µM (inactive) |  | 3.52 µM (inactive) | 49.5 µM (inactive) | 4 µM (inactive) | > 100 µM (inactive) | 6.79 µM (inactive) | > 100 µM (inactive) |  |  |  | 3.33 µM (inactive) | 12.7 µM (inactive) | > 100 µM (inactive) | 27.1 µM (inactive) | 56 µM (inactive) | 35.6 µM (inactive) | 86.7 µM (inactive) |
| COC(=O)c1ncc2c(=O)[nH]c3ccccc3c2c1C(=O)OC | > 100 µM (inactive) | > 100 µM (inactive) | > 100 µM (inactive) | > 100 | > 100 µM (inactive) | > 100 µM (inactive) | > 100 µM (inactive) | > 100 µM (inactive) | > 100 µM (inactive) | > 100 µM (inactive) |  |  |  | > 100 µM (inactive) | > 100 µM (inactive) | > 100 µM (inactive) | > 100 µM (inactive) | > 100 µM (inactive) | > 100 µM (inactive) |  |
| O=C(O)c1ccccc1C1c2ccc(Cl)cc2Oc2cc(Cl)ccc21 | > 100 µM (inactive) | > 100 µM (inactive) |  | > 100 | > 100 µM (inactive) | > 100 µM (inactive) | > 100 µM (inactive) | > 100 µM (inactive) | > 100 µM (inactive) | > 100 µM (inactive) |  |  |  | > 100 µM (inactive) | > 100 µM (inactive) | > 100 µM (inactive) | > 100 µM (inactive) | > 100 µM (inactive) | > 100 µM (inactive) | > 100 µM (inactive) |
| O=c1c([Se]c2coc3ccccc3c2=O)coc2ccccc12 | 18.2 µM (inactive) | 18.7 µM (inactive) | 3.8 µM (inactive) | 16.9 | 23 µM (inactive) | 15.7 µM (inactive) | 17.6 µM (inactive) | 10.5 µM (inactive) | 34.1 µM (inactive) | 16 µM (inactive) |  |  |  | 9.18 µM (inactive) | 18 µM (inactive) | 17.1 µM (inactive) | 18.2 µM (inactive) | 15.6 µM (inactive) | 17.7 µM (inactive) | 7.13 µM (inactive) |
| CN(C)CC(/C(Cc1ccccc1)=N\NC(=O)C[n+]1ccccc1)c1ccccc1 (stereo not drawn) | > 100 µM (inactive) | > 100 µM (inactive) | > 100 µM (inactive) | > 100 | > 100 µM (inactive) | > 100 µM (inactive) | > 100 µM (inactive) | > 100 µM (inactive) | > 100 µM (inactive) | > 10 µM (inactive) |  |  |  | > 100 µM (inactive) | > 100 µM (inactive) | > 100 µM (inactive) | > 100 µM (inactive) | > 100 µM (inactive) | > 100 µM (inactive) | > 100 µM (inactive) |
